Measurements reported in paper PMC10713630, “Elucidation of the structural basis for ligand binding and translocation in conserved insect odorant receptor co-receptors” (Nature Communications, 2023).
Where “and” joins values, the source holds several entries; their conditions need not be identical. Equal entries are not always repeated. Entries after “also recorded” stand apart in the source; their conditions may differ.

Tests used:
DmelOrco I79A = DmelOrco I79A (Drosophila melanogaster, UniProt Q9VNB5, I79A); assay: TEVC recording of VUAA1-induced current, DmelOrco I79A in Xenopus oocytes; type: cell-based; design: VUAA1-induced current, i79A: unit not given here
Source text: (§1) All Orco gene sequences were optimized[63] for protein expression in Xenopus laevis oocytes with the GenSmartTM Codon optimization Tool and subcloned into a pGEMHE-derived vector. The wildtype gene of Drosophila melanogaster Orco (DmelOrco) was synthesized by Genscript and subcloned with XmaI/XhoI cloning sites. Site-directed mutagenesis of DmelOrco was done by PCR with the Q5® site directed mutagenesis kit (NEB) using primers optimized with the NEBase Changer online tool and following the supplier’s protocol. After transformation of commercial competent bacteria (XL10 Gold) by standard heat-shock protocol and overnight culture in ampicillin-containing LB plates, positive clones were identified by electrophoretic restriction profile and external sequencing (Genewiz). DNAs of positive clones were amplified with Qiagen MidiPrep Kit and the ORF was fully sequenced. For in vitro transcription, DNAs were linearized with restriction enzyme NotI that cuts a unique site in the 3′ region of the polyA tail. […] DNA and RNA were analyzed by agarose-gel electrophoresis and quantified by spectrophotometry. […]
(§2) Whole cell currents were recorded with the two-electrode voltage-clamp (TEVC) technique with the HiClamp robot (MultiChannel System). […] Data were extracted with M. Vivaudou’s programs[65] and statistically analyzed with Prism 8 (Graphpad).

DmelOrco I79W = DmelOrco I79W (Drosophila melanogaster, UniProt Q9VNB5, I79W); assay: TEVC recording of VUAA1-induced current, DmelOrco I79W in Xenopus oocytes; type: cell-based; design: VUAA1-induced current, i79W: unit not given here; settings: for VUAA1-induced current, i79W: individual oocytes
Source text: All Orco gene sequences were optimized[63] for protein expression in Xenopus laevis oocytes with the GenSmartTM Codon optimization Tool and subcloned into a pGEMHE-derived vector. The wildtype gene of Drosophila melanogaster Orco (DmelOrco) was synthesized by Genscript and subcloned with XmaI/XhoI cloning sites. Site-directed mutagenesis of DmelOrco was done by PCR with the Q5® site directed mutagenesis kit (NEB) using primers optimized with the NEBase Changer online tool and following the supplier’s protocol. After transformation of commercial competent bacteria (XL10 Gold) by standard heat-shock protocol and overnight culture in ampicillin-containing LB plates, positive clones were identified by electrophoretic restriction profile and external sequencing (Genewiz). DNAs of positive clones were amplified with Qiagen MidiPrep Kit and the ORF was fully sequenced. For in vitro transcription, DNAs were linearized with restriction enzyme NotI that cuts a unique site in the 3′ region of the polyA tail. The linearized DNAs were purified by the standard phenol:chloroform extraction method and transcribed into mRNA using the T7 ultra mMessage mMachine kit (Thermo Fisher Scientific). mRNAs were purified with the NucleoSpin RNA plus XS kit (Machery-Nagel). DNA and RNA were analyzed by agarose-gel electrophoresis and quantified by spectrophotometry.
Xenopus laevis oocytes were prepared, as previously described. Briefly, oocytes were defolliculated after surgical retrieval by type 1 A collagenase over 2-3 h under smooth horizontal agitation. They were manually selected and incubated at 19 °C in modified-Barth’s solution (1 mM KCl, 0.82 mM MgSO4, 88 mM NaCl, 2.4 mM NaHCO3, 0.41 mM CaCl2, Ca(NO3)2 0.3 mM, 16 mM HEPES, pH 7.4) supplemented with 100 U mL^−1 of penicillin and streptomycin and 0.1 mg mL^−1 of gentamycin. Each oocyte was micro-injected with the Nanoject instrument (Drummond) with 50 nL of 20 ng of mRNA coding for the Orco of interest. Injected oocytes were incubated individually in 96-well plates for 4 days at 19 °C in the same buffer. Different batches of oocytes have been tested per construct. The results of the mutants of interest have been confirmed by a second set of experiments comparing the amplitudes with WT in the same day and from the same batch of oocytes (Supplementary Fig. 11).
Whole cell currents were recorded with the two-electrode voltage-clamp (TEVC) technique with the HiClamp robot (MultiChannel System). Microelectrodes were filled with 3 M KCl. The high K^+ buffer used for recordings was composed of 91 mM KCl, 1 mM MgCl2, 1.8 mM CaCl2, 5 mM HEPES, pH 7.4. Membrane voltage was clamped to −50 mV and VUAA1 was applied for 60 s. Data were extracted with M. Vivaudou’s programs[65] and statistically analyzed with Prism 8 (Graphpad).

DmelOrco K373A = DmelOrco K373A (Drosophila melanogaster, UniProt Q9VNB5, K373A); assay: TEVC recording of VUAA1-induced current, DmelOrco K373A in Xenopus oocytes; type: cell-based; design: VUAA1-induced current, K373A: unit not given here
Source text: as §1, §2

DmelOrco Y397A = DmelOrco Y397A (Drosophila melanogaster, UniProt Q9VNB5, Y397A); assay: TEVC recording of VUAA1-induced current, DmelOrco Y397A in Xenopus oocytes; type: cell-based; design: VUAA1-induced current, Y397A: unit not given here
Source text: as §1, §2

DmelOrco M210L = DmelOrco M210L (Drosophila melanogaster, UniProt Q9VNB5, M210L); assay: TEVC recording of VUAA1-induced current, DmelOrco M210L in Xenopus oocytes; type: cell-based; settings: 500 µM VUAA1, TEVC
Source text: as §1, §2

DmelOrco L141W = DmelOrco L141W (Drosophila melanogaster, UniProt Q9VNB5, L141W); assay: TEVC recording of VUAA1-induced current, DmelOrco L141W in Xenopus oocytes; type: cell-based; settings: 500 µM VUAA1, TEVC
Source text: as §1, with “sequenced.” for “sequenced. For in vitro transcription, DNAs were linearized with restriction enzyme NotI that cuts a unique site in the 3′ region of the polyA tail.”
(§3) Whole cell currents were recorded with the two-electrode voltage-clamp (TEVC) technique with the HiClamp robot (MultiChannel System). […] Data were extracted with M. Vivaudou’s programs[65] and statistically analyzed with Prism 8 (Graphpad). […]
100 by 500 µM of the ligand VUAA1 and measured by TEVC recordings on DmelOrco WT and mutants […]

AalbOrco = assay: TEVC recording of VUAA1-induced current, AalbOrco in Xenopus oocytes; type: cell-based, Aedes albopictus; settings: 500 µM VUAA1, TEVC, each value one oocyte, Fig.S1c source data
Source text: as §1, with “sequenced.” for “sequenced. For in vitro transcription, DNAs were linearized with restriction enzyme NotI that cuts a unique site in the 3′ region of the polyA tail.”
as §3
37 from different species expressed in Xenopus oocytes and recorded by TEVC. […]

DmelOrco K373A, sequence (Q9VNB5 whole entry K373A, the tested form may be a part): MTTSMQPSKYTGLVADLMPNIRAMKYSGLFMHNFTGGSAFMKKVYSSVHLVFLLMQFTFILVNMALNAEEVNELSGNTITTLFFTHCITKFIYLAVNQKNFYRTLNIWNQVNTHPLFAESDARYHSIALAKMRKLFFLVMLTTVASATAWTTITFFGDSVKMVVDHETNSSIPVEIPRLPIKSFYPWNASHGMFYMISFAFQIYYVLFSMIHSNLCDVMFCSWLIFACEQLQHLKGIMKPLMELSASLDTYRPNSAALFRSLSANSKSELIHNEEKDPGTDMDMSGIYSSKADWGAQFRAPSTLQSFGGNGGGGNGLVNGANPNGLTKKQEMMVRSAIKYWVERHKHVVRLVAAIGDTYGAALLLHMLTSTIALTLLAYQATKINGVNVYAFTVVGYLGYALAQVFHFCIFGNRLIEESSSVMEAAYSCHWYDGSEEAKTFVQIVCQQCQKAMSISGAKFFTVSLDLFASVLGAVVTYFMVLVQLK
DmelOrco I79W, sequence (Q9VNB5 whole entry I79W, the tested form may be a part): as the sequence (Q9VNB5 whole entry K373A, the tested form may be a part) above, with I79W, A373K counted along it
DmelOrco Y397A, sequence (Q9VNB5 whole entry Y397A, the tested form may be a part): as the sequence (Q9VNB5 whole entry K373A, the tested form may be a part) above, with A373K, Y397A counted along it
DmelOrco I79A, sequence (Q9VNB5 whole entry I79A, the tested form may be a part): as the sequence (Q9VNB5 whole entry K373A, the tested form may be a part) above, with I79A, A373K counted along it
DmelOrco M210L, sequence (Q9VNB5 whole entry M210L, the tested form may be a part): as the sequence (Q9VNB5 whole entry K373A, the tested form may be a part) above, with M210L, A373K counted along it
DmelOrco L141W, sequence (Q9VNB5 whole entry L141W, the tested form may be a part): as the sequence (Q9VNB5 whole entry K373A, the tested form may be a part) above, with L141W, A373K counted along it

With `CCc1ccc(NC(=O)CSc2nnc(-c3cccnc3)n2CC)cc1` [VUAA1, N-(4-ethylphenyl)−2-((4-ethyl-5-(3-pyridinyl)−4H-1,2,4-triazol-3-yl)thio)acetamide] the “Response to VUAA1 compared with WT” value (DmelOrco I79A; 500 µM VUAA1, TEVC, I79A) was “did not significantly affect the amplitude of activation”, the “VUAA1-induced current, i79A” value (DmelOrco I79A; Fig.4b, individual oocytes) was 1.26 and 4.71 and 3.65 and 1.07 and 3.06 and 3.49 and 3.19 and 0.68 and 2.72 and 3.85 and the “Response to VUAA1 compared with WT” value (DmelOrco I79W; 500 µM VUAA1, TEVC, I79W) was “significantly reduced or abolished the activation”. The “VUAA1-induced current, i79W” value (DmelOrco I79W; Fig.4b) was 0.5 and 0.66 and 0.09 and 0.23 and 0.24 and 0.02 and 0.06 and 0.14 and 0.05, the “VUAA1-induced current, i79W” value (DmelOrco I79W; Fig.4i dose-response, VUAA1 10 µM (Log(M) -5)) was 0.07 (2×) and 0.12 and 0.2 and 0.01 (3×) and 0.02 and 0.41 and 0.18 and the “VUAA1-induced current, i79W” value (DmelOrco I79W; Fig.4i dose-response, VUAA1 25 µM (Log(M) -4.6)) was 0.12 and 0.11 and 0.22 and 0.36 and 0.01 (3×) and 0.03 and 0.6 and 0.26. The “VUAA1-induced current, i79W” value (DmelOrco I79W; Fig.4i dose-response, VUAA1 50 µM (Log(M) -4.3)) was 0.18 and 0.17 and 0.32 and 0.56 and 0.02 (2×) and 0.03 and 0.05 and 0.68 and 0.28, the “VUAA1-induced current, i79W” value (DmelOrco I79W; Fig.4i dose-response, VUAA1 100 µM (Log(M) -4)) was 0.23 and 0.22 and 0.41 and 0.7 and 0.02 (2×) and 0.06 and 0.09 and 0.71 and 0.29 and the “VUAA1-induced current, i79W” value (DmelOrco I79W; Fig.4i dose-response, VUAA1 500 µM (Log(M) -3.3)) was 0.29 and 0.28 and 0.52 and 0.84 and 0.02 and 0.07 and 0.12 and 0.82 and 0.03 and 0.25. For the same compound, the “VUAA1-induced current, i79W” value (DmelOrco I79W; Fig.4i dose-response, VUAA1 1000 µM (Log(M) -3)) was 0.38 and 0.36 and 0.67 and 1.01 and 0.03 and 0.09 and 0.14 and 0.96 and 0.04 and 0.24, the Imax (DmelOrco I79W; concentration-effect curve of VUAA1, TEVC, I79W) was 0.65 µA and the “Response to VUAA1 compared with WT” value (DmelOrco K373A; 500 µM VUAA1, TEVC, K373A) was “did not significantly affect the amplitude of activation; also recorded: did not change the response”. The “VUAA1-induced current, K373A” value (DmelOrco K373A; Fig.4b, individual oocytes) was 6.85 and 4.61 and 2.07 and 4.45 and 3.44 and 3.51 and 4.3 and 6.42 and 4.68 and 7.17 and 5.08, the “Response to VUAA1 compared with WT” value (DmelOrco Y397A; 500 µM VUAA1, TEVC, Y397A) was “did not significantly affect the amplitude of activation; also recorded: did not significantly change the amplitude of activation” and the “VUAA1-induced current, Y397A” value (DmelOrco Y397A; Fig.4b, individual oocytes) was 3.14 and 11.04 and 1.66 and 7.27 and 3.17 and 5.5 and 5.32 and 6.03 and 4.8 and 7.35 and 2.62. For the same compound, the “Current induced by VUAA1 (median)” value (DmelOrco M210L) was 6.19 µA, the “Response to VUAA1 compared with WT” value (DmelOrco L141W) was “did not induce significant change” and the “Current amplitude induced by 500 µM VUAA1 (single recordings)” value (AalbOrco) was 2.82 µA and 1.66 µA.
